Data published in patent publication US20080293048A1, “METHODS AND KITS BASED ON UGT1A7 PROMOTER POLYMORPHISM” (priority 2004, published 2008).

Experiments:
UGT1A7 = molecular target: T1, UGT1A7 (Homo sapiens, UniProt Q9HAW7); settings: stated as known; cited from earlier work
T1 construct: expressed in transfected cells; host or cells: HEK293
T1 sequence (Q9HAW7 26-530): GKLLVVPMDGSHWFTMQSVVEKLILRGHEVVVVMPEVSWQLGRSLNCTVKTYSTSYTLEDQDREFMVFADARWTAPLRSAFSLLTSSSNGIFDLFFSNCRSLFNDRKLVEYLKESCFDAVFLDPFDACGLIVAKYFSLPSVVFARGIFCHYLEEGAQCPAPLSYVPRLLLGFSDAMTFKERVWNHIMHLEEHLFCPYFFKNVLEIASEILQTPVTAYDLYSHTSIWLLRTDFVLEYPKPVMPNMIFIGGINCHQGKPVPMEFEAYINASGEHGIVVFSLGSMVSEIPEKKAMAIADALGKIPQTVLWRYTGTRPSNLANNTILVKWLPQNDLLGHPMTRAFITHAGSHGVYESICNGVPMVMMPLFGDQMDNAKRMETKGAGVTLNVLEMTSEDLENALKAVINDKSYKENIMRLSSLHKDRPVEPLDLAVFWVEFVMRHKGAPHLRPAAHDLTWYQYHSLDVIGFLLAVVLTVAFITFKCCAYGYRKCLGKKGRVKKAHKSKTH

[1] = background statement; cited from earlier work
[2] = test system: patients with metastatic colorectal cancer; settings: human, in vivo
Protocol: The aim of this study was to assess adverse events, dose reductions and clinical outcome. In both treatment arms 80 mg/m^2 of CPT-11 were administered intravenously over 30 minutes on day 1, 8, 15, 22, 29 and 36 and the cycle repeated after day 50. In arm A of the FIRE study FA (500 mg/m^2, 120 min. infusion) and 5-FU (2000 mg/m^2, 24 h infusion) were co-administered on days 1, 8, 15, 22, 29, 36, and in arm B oxaliplatin (85 mg/m^2, 120 min infusion) were co-administered on day 1, 15 and 29. At the beginning of each treatment cycle adverse events and clinical symptoms were documented. Patients with known Gilbert's disease were excluded from this study. The following adverse events were analyzed: diarrhea within 24 h and later than 24 after administration of CPT-11, loss of body weight more than 5%, anemia, thrombocytopenia, and leukopenia. The intensity of adverse events was classified according to the WHO-Adverse Reaction Terminology with scores from “0”—“no adverse events” to 4—“life-threatening adverse events”. If the CPT-11 dose had to be reduced to less than 80%, dose reduction was documented at each cycle. Genomic DNA from full blood of all patients was isolated as described before and genotyped after written informed consent was obtained. The study was approved by the local ethics committees.
All genotyping studies were performed in a blinded fashion without prior knowledge of the clinical data of the analyzed patient. Approximately 10 ng of genomic DNA were used as a template in Taqman 5′-nuclease assays. Primers and probes specific for each SNP were designed with Primer Express Software (Applied Biosystems) and labelled with either 6-FAM or VIC as reporter dyes and MGB-NFQ (Applied Biosystems) as a quencher as described in Lankisch et al., Mol. Pharmacol, 2005, 67(5); 1732-1739. The Taqman assays were performed using 600 nM primer concentrations and 200 nM probe concentrations (Applied Biosystems) and qPCR Mastermix Plus (Eurogentec, Seraing, Belgium). The run consisted of a hot start at 95° C. for 10 minutes and 35 cycles of 94° C. for 15 sec. and 61° C. for 1 min. All assays were performed in 25 μl reactions in 96-well trays using an ABI 7000 instrument (Applied Biosystems). UGT1A1*28 was determined by Oncoscreen, Jena, Germany.
Patients were classified according to the number of SNPs determined at the UGT1A1*28, UGT1A7 −57 T/G and UGT1A7 N129K/R131K gene loci. In the absence of allelic variants patients were classified as “low risk”, whereas high risk patients were defined if at least one allele of the allelic variant of each analyzed gene locus was present. If only one or two allelic variants were detected at the UGT1A1 or UGT1A7 gene locus, patients were classified as “intermediate risk”. […] Frequency and intensity of the adverse events were compared between the risk groups defined above by Cochran-Mantel-Haenszel statistics using modified ridit scores. The risk groups were also compared by multivariant analysis (non-parametric Weil-Lachin procedure) for differences in intensity of 5 adverse events simultaneously. […] This test leads to values between 0 and 1 with 0.5 characterizing equal chances, which would indicate no difference in the comparison of these patients. The analysis of incidence and intensity of adverse events was based on the documented 297 treatment cycles involving all 105 patients. The Chi-Square test was used for statistical analysis of CPT-11 dose reductions. P-values were not adjusted for multiple testing. All statistical analyses were calculated by an independent statistician who was not involved in patient treatment or genotyping (Estimate GmbH, Augsburg, Germany).

Compound	specific activity of UGT1A7 with SN-38 compared with UGT1A1 (UGT1A7)	activity higher than irinotecan [1]	Leukopenia WHO Grade 1, % [2] [%]	Leukopenia WHO Grade 1, n treatment cycles [2]	Thrombocytopenia WHO Grade 2, % [2] [%]	Thrombocytopenia WHO Grade 2, n treatment cycles [2]	Thrombocytopenia WHO Grade 3, % [2] [%]	Thrombocytopenia WHO Grade 3, n treatment cycles [2]	diarrhea <24 h WHO Grade 3, % of treatment cycles [2]	diarrhea <24 h WHO Grade 3, N treatment cycles [2]	leukopenia WHO Grade 4, % of treatment cycles [2] [%]	leukopenia WHO Grade 4, N treatment cycles [2]	thrombocytopenia WHO Grade 2, % of treatment cycles [2] [%]	thrombocytopenia WHO Grade 2, N treatment cycles [2]	thrombocytopenia WHO Grade 3, % of treatment cycles [2]	thrombocytopenia WHO Grade 3, N treatment cycles [2]	overall incidence of adverse events, Mann Whitney test ([2]; 50 days)	Leukopenia WHO Grade 4, % ([2]; 50 days (one treatment cycle)) [%]	Leukopenia WHO Grade 4, n treatment cycles ([2]; 50 days (one treatment cycle))
CCc1c2c(nc3ccc(O)cc13)-c1cc3c(c(=O)n1C2)COC(=O)[C@]3(O)CC [SN-38, 7-ethyl-10-hydroxycamptothecin]	five-hold higher	100-1000 fold																	
CCc1c2c(nc3ccc(OC(=O)N4CCC(N5CCCCC5)CC4)cc13)-c1cc3c(c(=O)n1C2)COC(=O)[C@]3(O)CC [irinotecan]			21	10	3	5	1	1	1 (1%)	1 (1%)	1	2	3	5	1 (1%)	1 (1%)	0.5511	1	2
